According to patent publication US6251919A, “Heterocyclic substituted aniline calcium channel blockers” (Warner-Lambert, priority 1999, dated 2001):
Like-named read-outs stand apart in the source and are kept apart here. Bridges are numbered along the chain shown (N, C = ends). Where no end group is shown, it is not given here.

Tests used:
male Swiss-Webster mice = test: Anti-Writhing Test in Mice (AW), acetic acid; type: in vivo
Description: Anti-Writhing Test in Mice (AW) Test Protocol
The purpose of this test is to evaluate drugs for analgesic-like activity. The AW test determines the effect of drugs on the response to a presumed painful stimulus in mice and is used as a preliminary in vivo procedure for the identification of potential analgesic agents.
Known analgesics with low, moderate, or high efficacy in man allow mice to tolerate intra-peritoneal administration of dilute acetic acid as evidenced by lesser incidence of writhing movements. The AW test measures the nociceptive response to acetic acid in mice and provides an objective, reliable, and quantitative estimate of efficacy and potency of potential analgesic compounds. […]
Compounds are dissolved or suspended in physiological saline containing 2% Emulphor. […] Drug doses are expressed as the active moiety and are normally administered to mice (10, 30, and 100 mg/kg IP, SC, PO, or IM) in a volume of 10 mL/kg, 1 hour prior to testing; ICV doses (in μg/kg) are administered in a volume of 0.5 mL/kg, 5 minutes prior to testing. […]
Mice are treated with a dilute solution of acetic acid (0.6%, 10 mL/kg IP) which elicits writhing. […] Writhing movements (abdominal contractions, stretching of the torso and hind legs, and concave arching of the back) are counted for 5 minutes commencing 7 minutes after acetic acid administration. […]

[1] = biological target: T1, N-type Ca^2+ channel in IMR-32 cells (Homo sapiens, UniProt Q00975); test: N-type Ca2+ channel blockade in IMR-32 cells (fluorescent Ca2+ indicator Indo-1); type: cell-based; conditions: 5 μM nitrendipine present; for inhibition at 1 µM: IMR-32, 1 μM; for inhibition at 10 µM: IMR-32, 10 μM
T1 construct: host or cells: IMR-32 (differentiated with dibutyryl cAMP and bromodeoxyuridine)
T1 sequence (Q00975 whole entry): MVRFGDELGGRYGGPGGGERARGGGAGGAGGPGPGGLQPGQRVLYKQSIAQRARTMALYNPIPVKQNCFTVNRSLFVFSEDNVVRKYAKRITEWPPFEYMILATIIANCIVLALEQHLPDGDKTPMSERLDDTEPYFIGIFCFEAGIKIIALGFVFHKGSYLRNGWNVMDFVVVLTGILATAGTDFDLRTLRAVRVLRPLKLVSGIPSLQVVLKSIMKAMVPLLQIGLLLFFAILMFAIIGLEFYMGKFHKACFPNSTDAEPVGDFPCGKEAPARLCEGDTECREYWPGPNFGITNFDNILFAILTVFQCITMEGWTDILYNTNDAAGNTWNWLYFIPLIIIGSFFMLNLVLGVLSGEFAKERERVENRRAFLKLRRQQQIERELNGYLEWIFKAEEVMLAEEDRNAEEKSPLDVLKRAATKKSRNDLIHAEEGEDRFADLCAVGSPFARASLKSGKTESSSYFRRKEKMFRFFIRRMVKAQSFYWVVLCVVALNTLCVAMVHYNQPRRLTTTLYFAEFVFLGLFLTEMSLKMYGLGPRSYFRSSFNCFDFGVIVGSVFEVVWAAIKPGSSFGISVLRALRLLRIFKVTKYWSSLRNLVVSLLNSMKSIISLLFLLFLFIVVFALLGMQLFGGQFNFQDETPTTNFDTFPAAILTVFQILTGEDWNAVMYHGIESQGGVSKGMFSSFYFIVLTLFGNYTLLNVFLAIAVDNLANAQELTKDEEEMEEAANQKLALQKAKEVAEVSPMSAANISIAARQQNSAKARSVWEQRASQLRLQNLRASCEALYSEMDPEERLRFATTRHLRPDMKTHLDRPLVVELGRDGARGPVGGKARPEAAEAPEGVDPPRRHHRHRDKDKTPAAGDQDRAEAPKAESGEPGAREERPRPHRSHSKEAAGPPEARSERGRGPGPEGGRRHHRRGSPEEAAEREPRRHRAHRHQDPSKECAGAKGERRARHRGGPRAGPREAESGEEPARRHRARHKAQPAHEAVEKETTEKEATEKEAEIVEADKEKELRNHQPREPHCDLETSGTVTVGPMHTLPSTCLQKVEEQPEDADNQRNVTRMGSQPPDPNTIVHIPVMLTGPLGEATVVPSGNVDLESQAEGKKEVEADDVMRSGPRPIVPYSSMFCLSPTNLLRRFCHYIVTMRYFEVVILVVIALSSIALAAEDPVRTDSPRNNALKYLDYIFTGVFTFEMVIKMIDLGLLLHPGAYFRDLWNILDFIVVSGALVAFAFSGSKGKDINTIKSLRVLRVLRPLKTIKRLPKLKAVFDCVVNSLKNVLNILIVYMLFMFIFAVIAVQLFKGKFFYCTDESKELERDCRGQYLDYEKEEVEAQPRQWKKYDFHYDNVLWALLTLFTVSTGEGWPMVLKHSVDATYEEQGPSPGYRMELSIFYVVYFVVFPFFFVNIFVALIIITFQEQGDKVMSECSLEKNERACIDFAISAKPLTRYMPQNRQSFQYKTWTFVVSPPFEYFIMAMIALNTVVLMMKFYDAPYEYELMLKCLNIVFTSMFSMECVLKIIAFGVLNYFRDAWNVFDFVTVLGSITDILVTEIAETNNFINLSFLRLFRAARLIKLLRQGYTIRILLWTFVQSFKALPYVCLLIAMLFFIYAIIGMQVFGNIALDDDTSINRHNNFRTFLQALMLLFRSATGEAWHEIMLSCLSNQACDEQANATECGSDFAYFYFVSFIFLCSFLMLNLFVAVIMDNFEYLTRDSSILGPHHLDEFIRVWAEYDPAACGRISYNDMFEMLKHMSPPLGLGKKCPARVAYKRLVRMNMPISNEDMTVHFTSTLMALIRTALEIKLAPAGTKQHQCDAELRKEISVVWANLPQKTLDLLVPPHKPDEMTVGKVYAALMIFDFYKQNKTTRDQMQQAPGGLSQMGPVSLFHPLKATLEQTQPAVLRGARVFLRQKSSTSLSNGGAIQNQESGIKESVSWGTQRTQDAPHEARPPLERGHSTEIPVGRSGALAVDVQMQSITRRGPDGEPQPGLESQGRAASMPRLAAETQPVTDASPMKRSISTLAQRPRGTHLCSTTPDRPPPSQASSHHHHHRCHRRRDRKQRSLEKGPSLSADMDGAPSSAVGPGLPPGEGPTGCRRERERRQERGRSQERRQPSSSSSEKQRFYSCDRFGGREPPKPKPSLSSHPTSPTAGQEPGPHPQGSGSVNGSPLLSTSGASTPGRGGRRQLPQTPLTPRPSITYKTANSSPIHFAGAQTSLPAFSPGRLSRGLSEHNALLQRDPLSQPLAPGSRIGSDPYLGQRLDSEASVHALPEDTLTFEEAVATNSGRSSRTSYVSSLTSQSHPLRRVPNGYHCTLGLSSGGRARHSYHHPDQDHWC

DBA/2 mice = test: Audiogenic seizure (anticonvulsant) test in DBA/2 mice; type: in vivo; conditions: Mus musculus, intravenous, read-out: DBA/2 mice % Protection
Experimental: A compound of the present invention was dissolved in water using 10% (weight/volume) Emulphor (GAF Corp., Wayne, N.J.) surfactant. Substances were administered by intravenous injection into the retro-orbital venous sinus. All testing was performed fifteen minutes or forty-five minutes after drug injection. All the male mice, 3-4 weeks old were obtained from Jackson Laboratories Bar Harbour, Me. Immediately before anticonvulsant testing, mice were placed upon a wire mesh, four inches square suspended from a steel rod. The square was slowly inserted through 180 degree and mice observed for thirty seconds. Any mouse falling from the wire mesh was scored as ataxia.
Mice were placed into an enclosed acrylic plastic chamber (21 cm height, approximately 30 cm diameter) with a high-frequency speaker (4 cm diameter) in the center of the top lid. An audio signal generator (Protek model B-810) was used to produe a continuous sinusoidal tone that was swept linearly in frequency between 8 kHz and 16 kHz once each 10 msec. The average sound pressure level (SPL) during stimulation was approximately 100 dB at the floor of the chamber. Mice were placed within the chamber and allowed to acclimatize for one minute. DBA/2 mice in the vehicle-treated group responded to the sound stimulus (applied until tonic extension occurred, or for a maximum of sixty seconds) with a characteristic seizure sequence consisting of wild running followed by clonic seizures and later by tonic extension, and finally by respiratory arrest and death in 80% or more of the mice. In vehicle-treated mice, the entire sequence of seizures to respiratory arrest lasts approximately 15-20 seconds.
The incidence of all the seizure phases in the drug-treated and vehicle-treated mice was recorded, and the occurrence of tonic seizures were used for calculating anticonvulsant ED50 values by probit analysis. Mice were used only once for testing at each time and dose point.

[2] = tested on: models of ischemia and pain; conditions: Bowersox et al. 1994; cited from earlier work
N-type calcium channel = conditions: Bowersox et al. 1994; cited from earlier work

Row | Compound | inhibition at 1 µM [1] [%] | inhibition at 10 µM [1] [%] | responders at 10 mg/kg (DBA/2 mice) [%] | further results
1 | CC(C)=CCN(c1ccc(OCc2ccccc2)cc1)C1CCN(C(=O)[C@@H](O)CC(C)C)CC1 [Example 44, (S)-1-{4-[(4-Benzyloxy-phenyl)-(3-methyl-but-2-enyl)-amino]-piperidin-1-yl}-2-hydroxy-4-methyl-pentan-1-one] | 64 | 107 | – | Anti-Writhing % Protection (male Swiss-Webster mice; 10 mg/kg): 30%; Anti-Writhing % Protection (male Swiss-Webster mice; 30 mg/kg): 100%; responders at 30 mg/kg (DBA/2 mice; 30 mg/kg): 100%
2 | CC(C)=CCN(c1ccc(OCc2ccccc2)cc1)C1CCN(Cc2ccccc2)CC1 [Example 19, (4-Benzyloxy-phenyl)-(1-benzyl-piperidin4-yl)-(3-methyl-but-2-enyl)-amine] | – | – | 80 | IC50 [1]: 720 nM
3 | CC(C)=CCN(c1ccc(OCc2ccccc2)cc1)C1CCN(Cc2ccc(O)cc2)CC1 [Example 5, 4-{4-[(4-Benzyloxy-phenyl)-(3-methyl-but-2-enyl)-amino]-piperidin-1-ylmethyl}-phenol] | 47 | 100 | 80 | –
4 | CC(C)=CCN(c1ccc(OCc2ccccc2)cc1)C1CCN(CCC(C)(C)C)CC1 [Example 2, (4-Benzyloxy-phenyl)-[1-(3,3-dimethyl-butyl)-piperidin-4-yl]-(3-methyl-but-2-enyl)-amine] | 62 | 93 | 80 | –
5 | CC(C)=CCN(c1ccc(OCc2ccccc2)cc1)C1CCN(Cc2ccc(N(C)C)cc2)CC1 [Example 6, (4-Benzyloxy-phenyl)-[1-(4-dimethylamino-benzyl)-piperidin-4-yl]-(3-methyl-but-2-enyl)-amine] | – | – | 100 | responders at 30 mg/kg (DBA/2 mice; 30 mg/kg): 100%
6 | CC(C)=CCN(c1ccc(OCc2ccccc2)cc1)C1CCN(Cc2c[nH]cn2)CC1 [Example 8, (4-Benzyloxy-phenyl)-[1(1H-imidazol-4-ylmethyl)-piperidin-4-yl]-(3-methyl-but-2-enyl)-amine] | 16 | 71 | 60 | –
7 | CC(C)=CCN(c1ccc(OCc2ccccc2)cc1)C1CCN(CCC(C)C)CC1 [Example 1, (4-Benzyloxy-phenyl)-(3-methyl-but-2-enyl)-[1-(3-methyl-butyl)-piperidin-4-yl]-amine] | 40 | 79 | – | responders at 30 mg/kg (DBA/2 mice; 30 mg/kg): 100%
8 | CC(C)=CCN(c1ccc(OCc2ccccc2)cc1)C1CCN(CCC(C)O)CC1 (centres unmarked) [Example 20, 4-{4-[(4-Benzyloxy-phenyl)-(3-methyl-but-2-enyl)-aminol]-piperidin-1-yl}-butan-2-ol] | – | – | 40 | IC50 [1]: 3000 nM
9 | CC(C)=CCN(c1ccc(OCc2ccccc2)cc1)C1CCN(Cc2ccc[nH]2)CC1 [Example 7, (4-Benzyloxy-phenyl)-(3-methyl-but-2-enyl)-[1-(1H-pyrrol-2-ylmethyl)-piperidin-4-yl]-amine] | – | – | 100 | responders at 30 mg/kg (DBA/2 mice; 30 mg/kg): 100%
10 | CC(C)=CCN(c1ccc(OCc2ccccc2)cc1)C1CCN(C(=O)C2CN(C(C)C)CCN2CCC(C)C)CC1 (centres unmarked) [Example 15, {4-[(4-Benzyloxy-phenyl)-(3-methyl-but-2-enyl)-amino]-piperidin-1-yl}-[4-isopropyl-1-(3-methyl-butyl)-piperazin-2-yl]-methanone] | 51 | 92 | 20 | responders at 30 mg/kg (DBA/2 mice; 0.75 h, 30 mg/kg (45 min)): 100%
11 | CC(C)=CCN(c1ccc(OCc2ccccc2)cc1)C1CCN(Cc2ccc(F)cc2)CC1 [Example 25, (4-Benzyloxy-phenyl)-[1-(4-fluoro-benzyl)-piperidin4-yl]-(3-methyl-but-2-enyl)-amine] | 62 | – | – | –
12 | SNX-111: selective N-type calcium channel blocker (CKGKGAKCSRLMYDCCTGSCRSGKC-NH2; disulfide 1-16, 15-25, 8-20; UniProt P05484 46-70, looked up) | – | – | – | activity in models of ischemia and pain [2]: demonstrated activity in a number of models of ischemia and pain; N-type calcium channel blockade selectivity (N-type calcium channel): selective N-type calcium channel blocker
13 | CC(C)=CCN(c1ccc(OCc2ccccc2)cc1)C1CCCN(Cc2ccccc2)C1 (centres unmarked) [Example 49, (4-Benzyloxy-phenyl)-(1-benzyl-piperidin-3-yl)-(3-methyl-but-2-enyl)-amine] | – | – | – | IC50 [1]: 1200 nM
14 | CC(C)=CCN(c1ccc(OCc2ccccc2)cc1)C1CCN(CCc2ccccc2)CC1 [Example 23, (4-Benzyloxy-phenyl)-(3-methyl-but-2-enyl)-(1-phenethyl-piperidin-4-yl)-amine] | – | – | – | IC50 [1]: 300 nM
15 | CC(C)=CCN(c1ccc(OC(C)C)cc1)C1CCN(Cc2ccc(F)cc2)CC1 [Example 35, [1-(4-Fluoro-benzyl)-piperidin-4-yl]-(4-isopropoxy-phenyl)-(3-methyl-but-2-enyl)-amine] | 37 | – | – | –
